Reference: US20260132132A1, “3A,4,5,6-TETRAHYDRO-1 H-PYRAZOLO[3,4-C]PYRIDIN-7(7AH)-ONE DERIVATIVES AS FACTOR XIIA INHIBITORS” (KALVISTA PHARMACEUTICALS LIMITED, priority 2022, published 2026)

Tests used:
Format in all cases: biochemical
[1] = target: T1, Human Factor XIIa (hFXIIa) (Homo sapiens, UniProt P00748); test: Determination of Human Factor XIIa (hFXIIa) inhibition, fluorogenic substrate IC50 assay; details: fluorogenic substrate H-DPro-Phe-Arg-AFC at Km, 25° C., read-out: Human FXIIa IC50
T1 construct: purchased Enzyme Research Laboratories
T1 sequence (P00748 373-615 limits assumed): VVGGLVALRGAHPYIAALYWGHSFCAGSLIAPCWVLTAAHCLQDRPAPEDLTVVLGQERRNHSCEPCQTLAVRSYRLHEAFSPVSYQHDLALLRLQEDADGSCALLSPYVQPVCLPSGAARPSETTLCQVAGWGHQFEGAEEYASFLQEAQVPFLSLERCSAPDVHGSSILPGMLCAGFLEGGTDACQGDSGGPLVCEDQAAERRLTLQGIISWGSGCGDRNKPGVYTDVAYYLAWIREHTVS
T1 sequence (P00748 20-372 partner limits assumed): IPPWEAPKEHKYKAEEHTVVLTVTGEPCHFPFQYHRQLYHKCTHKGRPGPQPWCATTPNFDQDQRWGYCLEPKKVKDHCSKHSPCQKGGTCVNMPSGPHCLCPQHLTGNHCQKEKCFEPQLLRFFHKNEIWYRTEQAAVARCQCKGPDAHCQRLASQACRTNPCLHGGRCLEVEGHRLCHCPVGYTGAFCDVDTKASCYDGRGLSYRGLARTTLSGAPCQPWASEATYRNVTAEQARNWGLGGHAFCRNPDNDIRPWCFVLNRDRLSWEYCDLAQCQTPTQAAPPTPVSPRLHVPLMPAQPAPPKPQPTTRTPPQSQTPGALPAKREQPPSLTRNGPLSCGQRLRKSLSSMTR
Experimental: Determination of Human Factor XIIa (hFXIIa) inhibition
The Km for the cleavage of the substrate by hFXIIa was determined by standard transformation of the Michaelis-Menten equation, with subsequent inhibition assays performed at substrate Km concentration.

FXa = FXa (Homo sapiens, UniProt P00742); test: Related protease inhibition: FXa, fluorogenic substrate; details: fluorogenic substrate at Km, 25° C., H1-H3 = % activity at 40 μM; for activity at 40 µM: read-out: IC50 (human FXa) nM
FXa, sequence (P00742 235-488 limits assumed): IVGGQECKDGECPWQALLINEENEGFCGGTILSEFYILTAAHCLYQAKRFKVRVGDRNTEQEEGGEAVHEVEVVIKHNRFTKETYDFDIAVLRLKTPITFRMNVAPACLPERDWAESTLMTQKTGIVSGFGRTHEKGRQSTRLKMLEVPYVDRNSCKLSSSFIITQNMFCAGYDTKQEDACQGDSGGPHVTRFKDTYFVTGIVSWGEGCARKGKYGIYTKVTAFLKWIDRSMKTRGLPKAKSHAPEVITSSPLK
FXa, sequence (P00742 41-179 partner limits assumed): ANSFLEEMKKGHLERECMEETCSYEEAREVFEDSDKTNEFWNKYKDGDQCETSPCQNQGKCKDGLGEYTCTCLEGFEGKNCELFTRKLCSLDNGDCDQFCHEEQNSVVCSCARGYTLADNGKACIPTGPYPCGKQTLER
Experimental: (§1) Human serine protease enzyme Plasma Kallikrein, KLK1, FXa, Plasmin, Thrombin and Trypsin were assayed for enzymatic activity using an appropriate fluorogenic substrate at Km concentration, FXIa at fixed substrate concentration of 100 μM and various concentrations of the test compound.

Thrombin = Thrombin (Homo sapiens, UniProt P00734); test: Related protease inhibition: Thrombin, fluorogenic substrate; details: fluorogenic substrate at Km, 25° C., H1-H3 = % activity at 40 μM; for activity at 40 µM: read-out: IC50 (human thrombin) nM
Experimental: as §1

SMILES	IC50 [1]	activity at 40 µM (FXa)	activity at 40 µM (Thrombin)	IC50 (FXa)	IC50 (Thrombin)
CCNC(=O)c1nn(-c2cccc(Cl)c2CO)c2c1CCN(c1ccc3c(c1)C(=O)N(C)CC3)C2=O [Example 2052, 1-(3-chloro-2-(hydroxymethyl)phenyl)-N-ethyl-6-(2-methyl-1-oxo-1,2,3,4-tetrahydroisoquinolin-7-yl)-7-oxo-4,5,6,7-tetrahydro-1H-pyrazolo[3,4-c]pyridine-3-carboxamide]	10 to 40 µM	> 80%	> 80%		
CCNC(=O)c1nn(-c2cccc(Cl)c2)c2c1CCN(c1cccc(N3CCC4(CC4)C3)c1)C2=O [Example 1430, 6-(3-(5-azaspiro[2.4]heptan-5-yl)phenyl)-1-(3-chlorophenyl)-N-ethyl-7-oxo-4,5,6,7-tetrahydro-1H-pyrazolo[3,4-c]pyridine-3-carboxamide]	3 to 10 µM	> 80%	> 80%		
CN1CCc2ccc(N3CCc4c(C(=O)NCCCO)nn(-c5cccc(Cl)c5)c4C3=O)cc2C1=O [Example 1417, 1-(3-chlorophenyl)-N-(3-hydroxypropyl)-6-(2-methyl-1-oxo-1,2,3,4-tetrahydroisoquinolin-7-yl)-7-oxo-4,5,6,7-tetrahydro-1H-pyrazolo[3,4-c]pyridine-3-carboxamide]	0.3 to 1 µM	20 to 80%	20 to 80%		
CCNC(=O)c1nn(-c2cccc(Cl)c2)c2c1CCN(c1cc3c(cn1)OCCN(C)C3=O)C2=O [Example 1418, 1-(3-chlorophenyl)-N-ethyl-6-(4-methyl-5-oxo-2,3,4,5-tetrahydropyrido[4,3-f][1,4]oxazepin-7-yl)-7-oxo-4,5,6,7-tetrahydro-1H-pyrazolo[3,4-c]pyridine-3-carboxamide]	0.3 to 1 µM	20 to 80%	> 80%		
Cc1ccc(CNC(=O)c2nn(-c3cccc(Cl)c3)c3c2CCN(c2ccc4c(c2)C(=O)N(CCO)CC4)C3=O)cn1 [Example 1414, 1-(3-chlorophenyl)-6-(2-(2-hydroxyethyl)-1-oxo-1,2,3,4-tetrahydroisoquinolin-7-yl)-N-((6-methylpyridin-3-yl)methyl)-7-oxo-4,5,6,7-tetrahydro-1H-pyrazolo[3,4-c]pyridine-3-carboxamide]	0.1 to 0.3 µM	20 to 80%	20 to 80%		
CN1CCc2ccc(N3CCc4c(C(=O)NCC5(N)CC5)nn(-c5cccc(Cl)c5)c4C3=O)cc2C1=O [Example 1427, N-((1-aminocyclopropyl)methyl)-1-(3-chlorophenyl)-6-(2-methyl-1-oxo-1,2,3,4-tetrahydroisoquinolin-7-yl)-7-oxo-4,5,6,7-tetrahydro-1H-pyrazolo[3,4-c]pyridine-3-carboxamide]	0.3 to 1 µM	> 80%	> 80%		
CCNC(=O)c1nn(-c2cccc(Cl)c2)c2c1CCN(c1cccc(N3CC4(COC4)CC3=O)c1)C2=O [Example 1428, 1-(3-chlorophenyl)-N-ethyl-7-oxo-6-(3-(7-oxo-2-oxa-6-azaspiro[3.4]octan-6-yl)phenyl)-4,5,6,7-tetrahydro-1H-pyrazolo[3,4-c]pyridine-3-carboxamide]	10 to 40 µM	> 80%	> 80%		
CCNC(=O)c1nn(-c2cccc(Cl)c2)c2c1CCN(c1cccc(N3C(=O)C[C@@H]4C[C@@H]43)c1)C2=O (single isomer, unassigned) [Example 1408, 1-(3-Chlorophenyl)-N-ethyl-7-oxo-6-(3-((1S*,5S*)-3-oxo-2-azabicyclo[3.1.0]hexan-2-yl)phenyl)-4,5,6,7-tetrahydro-1H-pyrazolo[3,4-c]pyridine-3-carboxamide]	0.3 to 1 µM		20 to 80%	10 to 40 µM	
CCNC(=O)c1nn(-c2cc(C)cs2)c2c1CCN(c1ccc3c(c1)C(=O)N(C)CC3)C2=O [Example 2045, N-ethyl-6-(2-methyl-1-oxo-1,2,3,4-tetrahydroisoquinolin-7-yl)-1-(4-methylthiophen-2-yl)-7-oxo-4,5,6,7-tetrahydro-1H-pyrazolo[3,4-c]pyridine-3-carboxamide]	3 to 10 µM	20 to 80%	20 to 80%		
COCc1nn(-c2cccc(C#N)c2C)c2c1CCN(c1ccc3c(c1)C(=O)N(C)CC3)C2=O [Example 2038, 3-(3-(Methoxymethyl)-6-(2-methyl-1-oxo-1,2,3,4-tetrahydroisoquinolin-7-yl)-7-oxo-4,5,6,7-tetrahydro-1H-pyrazolo[3,4-c]pyridin-1-yl)-2-methylbenzonitrile]	10 to 40 µM	> 80%	> 80%		
Cc1cc(CNC(=O)c2nn(-c3cc(Cl)cc(CN)c3)c3c2CCN(c2ccc4c(c2)C(=O)N(C)CC4)C3=O)nn1C [Example 2017, 1-(3-(Aminomethyl)-5-chlorophenyl)-N-((1,5-dimethyl-1H-pyrazol-3-yl)methyl)-6-(2-methyl-1-oxo-1,2,3,4-tetrahydroisoquinolin-7-yl)-7-oxo-4,5,6,7-tetrahydro-1H-pyrazolo[3,4-c]pyridine-3-carboxamide]	0.001 to 0.01 µM			10 to 40 µM	1 to 3 µM
CCNC(=O)c1nn(-c2ccc(Cl)c(C)c2)c2c1CCN(c1ccc3c(c1)C(=O)N(C)CC3)C2=O [Example 2057, 1-(4-chloro-3-methylphenyl)-N-ethyl-6-(2-methyl-1-oxo-1,2,3,4-tetrahydroisoquinolin-7-yl)-7-oxo-4,5,6,7-tetrahydro-1H-pyrazolo[3,4-c]pyridine-3-carboxamide]	1 to 3 µM	20 to 80%	20 to 80%		
CN1CCc2ccc(N3CCc4c(C(=O)NC5CCNCC5(F)F)nn(-c5cccc(Cl)c5)c4C3=O)cc2C1=O (stereo not drawn) [Example 1424, 1-(3-chlorophenyl)-N-(3,3-difluoropiperidin-4-yl)-6-(2-methyl-1-oxo-1,2,3,4-tetrahydroisoquinolin-7-yl)-7-oxo-4,5,6,7-tetrahydro-1H-pyrazolo[3,4-c]pyridine-3-carboxamide]	0.1 to 0.3 µM	20 to 80%	> 80%		
CN1CCc2ccc(N3CCc4c(C(=O)NC5CNCC5(F)F)nn(-c5cccc(Cl)c5)c4C3=O)cc2C1=O (stereo not drawn) [Example 1425, 1-(3-chlorophenyl)-N-(4,4-difluoropyrrolidin-3-yl)-6-(2-methyl-1-oxo-1,2,3,4-tetrahydroisoquinolin-7-yl)-7-oxo-4,5,6,7-tetrahydro-1H-pyrazolo[3,4-c]pyridine-3-carboxamide]	0.3 to 1 µM	> 80%	> 80%		
CCNC(=O)c1nn(-c2cccc(Cl)c2)c2c1CCN(c1ccc3c(c1)NCCO3)C2=O [Example 1422, 1-(3-chlorophenyl)-6-(3,4-dihydro-2H-benzo[b][1,4]oxazin-6-yl)-N-ethyl-7-oxo-4,5,6,7-tetrahydro-1H-pyrazolo[3,4-c]pyridine-3-carboxamide]	10 to 40 µM	20 to 80%	20 to 80%		
CN1CCc2ccc(N3CCc4c(C(=O)N[C@H]5COC[C@H]5O)nn(-c5cccc(Cl)c5)c4C3=O)cc2C1=O [Example 1416, 1-(3-chlorophenyl)-N-((3S,4S)-4-hydroxytetrahydrofuran-3-yl)-6-(2-methyl-1-oxo-1,2,3,4-tetrahydroisoquinolin-7-yl)-7-oxo-4,5,6,7-tetrahydro-1H-pyrazolo[3,4-c]pyridine-3-carboxamide]	0.1 to 0.3 µM	20 to 80%	20 to 80%		
CN1CCc2ccc(N3CCc4c(C(=O)NCC5CC5)nn(-c5cccc(CN)c5)c4C3=O)cc2C1=O [Example 2019, 1-(3-(aminomethyl)phenyl)-N-(cyclopropylmethyl)-6-(2-methyl-1-oxo-1,2,3,4-tetrahydroisoquinolin-7-yl)-7-oxo-4,5,6,7-tetrahydro-1H-pyrazolo[3,4-c]pyridine-3-carboxamide]	0.1 to 0.3 µM			10 to 40 µM	10 to 40 µM
CCNC(=O)c1nn(-c2cccc(Cl)c2)c2c1CCN(c1cccc(N3CCN(C(C)C)C3=O)c1)C2=O [Example 1409, 1-(3-chlorophenyl)-N-ethyl-6-(3-(3-isopropyl-2-oxoimidazolidin-1-yl)phenyl)-7-oxo-4,5,6,7-tetrahydro-1H-pyrazolo[3,4-c]pyridine-3-carboxamide]	3 to 10 µM	> 80%	> 80%		
